The text below walks through data of ChEMBL document CHEMBL3044787, “Carboxylesterase of the Rice Stem Borer, Chilo suppressalis WALKER (Lepidoptera: Pyralidae), Responsible for Fenitrothion Resistance as a Sequestering Protein” (J Pestic Sci, 1996).

The test system of data set [1] is Midgut. The data set is described as follows: Drug uptake in midgut of wild-type Chilo suppressalis (rice stem borer) fifth-instar larvae assessed per mg protein by liquid scintillation counting. In kind it is ADME, tissue-based.
For data set [2], the system named is Fat body. Briefly: Drug uptake in fat body of organophosphate-resistant Chilo suppressalis (rice stem borer) fifth-instar larvae assessed per mg protein by liquid scintillation counting. In kind it is ADME.
For data set [3], the system named is Haemolymph. The data set is described as follows: Drug uptake in haemolymph of wild-type Chilo suppressalis (rice stem borer) fifth-instar larvae assessed per mg protein by liquid scintillation counting. In kind it is ADME.
For data set [4], the system named is Malpighian tubule. Briefly: Drug uptake in Malpighian tubules of organophosphate-resistant Chilo suppressalis (rice stem borer) fifth-instar larvae assessed per mg protein by liquid scintillation counting. In kind it is ADME.
Data set [5] in a line: Drug uptake in cuticle/muscle of organophosphate-resistant Chilo suppressalis (rice stem borer) fifth-instar larvae assessed per mg protein by liquid scintillation counting. In kind it is ADME.
For a further data set, the target named is T1, Carboxylesterase (Loxostege sticticalis, UniProt B3TNN2).
T1 sequence (B3TNN2 whole entry): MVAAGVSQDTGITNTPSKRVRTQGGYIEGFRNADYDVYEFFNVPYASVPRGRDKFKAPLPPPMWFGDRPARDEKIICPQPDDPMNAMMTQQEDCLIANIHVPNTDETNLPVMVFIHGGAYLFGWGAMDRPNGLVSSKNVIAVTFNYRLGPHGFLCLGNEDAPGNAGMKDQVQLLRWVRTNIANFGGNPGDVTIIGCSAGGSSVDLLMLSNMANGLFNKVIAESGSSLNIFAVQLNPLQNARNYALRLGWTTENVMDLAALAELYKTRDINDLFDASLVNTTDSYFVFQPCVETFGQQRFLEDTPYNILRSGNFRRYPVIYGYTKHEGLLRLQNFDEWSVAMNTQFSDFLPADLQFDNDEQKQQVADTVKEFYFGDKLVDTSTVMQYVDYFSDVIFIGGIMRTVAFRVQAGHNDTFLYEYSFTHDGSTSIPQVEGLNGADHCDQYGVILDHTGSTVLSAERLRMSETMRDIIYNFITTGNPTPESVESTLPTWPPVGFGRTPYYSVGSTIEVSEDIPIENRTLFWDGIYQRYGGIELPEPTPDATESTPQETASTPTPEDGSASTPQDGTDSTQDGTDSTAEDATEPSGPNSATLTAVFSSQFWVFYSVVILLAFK
The data set is described as follows: Inhibition of carboxylesterase major isoform in organophosphate-resistant Chilo suppressalis (rice stem borer) midgut soluble fraction at 15 ng.

Data set [6] can be described thus: Drug uptake in cuticle/muscle of wild-type Chilo suppressalis (rice stem borer) fifth-instar larvae assessed per mg protein by liquid scintillation counting. In kind it is ADME.
Data set [7] has as its system Malpighian tubule. The data set is described as follows: Drug uptake in Malpighian tubules of wild-type Chilo suppressalis (rice stem borer) fifth-instar larvae assessed per mg protein by liquid scintillation counting. The class given is ADME.
For data set [8], the system named is Fat body. Briefly: Drug uptake in fat body of wild-type Chilo suppressalis (rice stem borer) fifth-instar larvae assessed per mg protein by liquid scintillation counting. In kind it is ADME.
In data set [9] the test system is Midgut. The data set is described as follows: Drug uptake in midgut of organophosphate-resistant Chilo suppressalis (rice stem borer) fifth-instar larvae assessed per mg protein by liquid scintillation counting. In kind it is ADME, tissue-based.
Data set [10] concerns Haemolymph. The data set is described as follows: Drug uptake in haemolymph of organophosphate-resistant Chilo suppressalis (rice stem borer) fifth-instar larvae assessed per mg protein by liquid scintillation counting. In kind it is ADME.
Data set [11] deals with Chilo suppressalis. The data set is described as follows: Insecticidal activity against organophosphate-resistant Chilo suppressalis (rice stem borer) fifth-instar larvae assessed as mortality after 24 hr. The class given is functional.
In data set [12] the test system is Chilo suppressalis. Briefly: Insecticidal activity against wild-type Chilo suppressalis (rice stem borer) fifth-instar larvae assessed as mortality after 24 hr. In kind it is functional.
The nature of data set [13]: Binding affinity to carboxylesterase in organophosphate-resistant Chilo suppressalis (rice stem borer) midgut soluble fraction assessed as inhibition of [14C]fenitroxon-sequestering activity at 10 umol/ml. Conditions: probe [14C]fenitroxon; call rule not given here.

With `COP(=O)(OC)Oc1ccc([N+](=O)[O-])c(C)c1` [FENITROXON], the Drug uptake in the data set with Midgut [1] came out at 0.22 nmol/h; with Fat body [2] it was 0.35 nmol/h; with Haemolymph [3], 0.042 nmol/h; with Malpighian tubule [4] it was 2.1 nmol/h; in data set [5], 0.24 nmol/h; in data set [6], 0.044 nmol/h. The Drug uptake was 0.24 nmol/h with Malpighian tubule [7], 0.052 nmol/h in the data set on Fat body [8], 1.5 nmol/h in the data set with Midgut [9] and 0.1 nmol/h with Haemolymph [10]. Besides, the “inhibition (INH)” value against Carboxylesterase is “Active”.
Regarding `COP(=S)(OC)Oc1ccc([N+](=O)[O-])c(C)c1` [FENITROTHION], the LD50 (in general, the dose at which mortality reaches 50%) amounted to 77.3 mg/kg with Chilo suppressalis [11] and 2.42 mg/kg in the data set with Chilo suppressalis [12].
On to `CC(=O)Oc1cccc2ccccc12` [ALPHA-NAPHTHYLACETATE], for which the inhibition (in general, how much of the control response was suppressed) at 10 umol/ml in data set [13] was found to be 61.8%.
